From US10314804B2, “Composition containing norbixin for protecting cells of the retinal pigment epithelium” (BIOPHYTIS, priority 2015, dated 2019)
“Also recorded” adds a separate entry of the source. Where two headings read alike, the source gives them in different places.

Columns and labels:
[1] = tested on: primary cultures of adult pig RPE; test: in vitro photoprotection test: RPE cells with A2E, blue light illumination, cell survival; format: cell-based; details: 20 μM (extract diluted to provide 20 μM of bixin), FIG. 1
Description: The term “blue radiation” is intended to mean the radiation corresponding to the blue band of the visible light spectrum, that is to say having a wavelength of between 435 and 490 nm. This model uses primary cultures of adult pig RPE. The cell survival is quantified by means of a cell viability test. At −48 h, the compounds to be tested (in 5 mM solution in DMSO) are added so as to obtain final concentrations of 1 to 20 μM), then at −19 h, A2E is added (final concentration 30 μM) and the cells are irradiated (time 0 h). 24 h later, the cell survival is measured. The acquisition of the images and also the processing thereof are carried out by means of a fluorescence microscope controlled by the Metamorph software and of a dedicated quantification program. The experiments are carried out on 96-well microplates in quadruplicate and the experiment is reproduced a minimum of four times. The results are expressed in the form of a ratio representing the number of live cells in the wells treated with the molecules to be tested, divided by the number of live cells in the control wells (treated with the dilution medium without A2E).

[2] = bioavailability of bixin and norbixin, plasma analysis; format: in vivo, C57Bl/6 mice; details: for Cmax: 50 mg/kg; for AUC(0-t): read-out: AUC 0-24 h; for detection in plasma over time: after bixin ingestion
Description: Studies of the bioavailability of bixin and of norbixin were carried out in C57Bl/6 mice. The compounds were administered orally (50 mg/kg). Blood samples were taken after 0.25, 0.5, 1, 3, 6, 8 and 24 h and analyzed by HPLC-DAD (UV 460 nm)-MS/MS.

[3] = tested on: primary cultures of adult pig RPE; details: cited from earlier work; for photoprotective activity on RPE cells in earlier tests (FR 11 54172): 0.1 μM, 1 μM and 10 μM
[4] = tested on: neuroganglion cells; details: Yamauchi et al., 2011; cited from earlier work
[5] = presence of norbixin in the eyes after intraperitoneal injection; format: in vivo, double KO mice (ABCA4−/−, RDH8−/−)
Description: The presence of norbixin in the eyes was investigated in double KO mice (ABCA4^−/−, RDH8^−/−) 3 hours after intraperitoneal injection of norbixin (10 mg/kg). The eyes of 6 animals were dissected and the samples were extracted with acetonitrile, pooled and then analyzed by HPLC-MS/MS (FIG. 4), which made it possible to specifically detect the presence of norbixin in the RPE and the retina (table 2).
Glucuronidation had also been described in the case of crocetin (Asai et al., 2005).

[6] = tested on: double KO mice (ABCA4−/−, RDH8−/−); test: photoprotective activity by intravitreal injection, blue light exposure; format: in vivo
Description: A genetically modified mouse model developed by Maeda et al. (2008) was used to test the photoprotective activity of norbixin. In this mouse model, two genes involved in the visual pigment cycle (ABCA4 and RDH8) are inactivated, which results in an early accumulation of A2E in the eyes (FIG. 5). This animal model is as a result similar to the human pathological condition, with of course its limits, associated with the differences in organization of the eyes between rodents and primates. 7-week-old mice were thus used to carry out unilateral intravitreal injections of norbixin (in order to obtain a final concentration in the vitreous body of 130 μM). After 24 h in the dark, the mice were subjected to an exposure to blue light (4000 lux, 1 h).

[7] = tested on: rats; test: rat blue light model, intraperitoneal injection; format: in vivo; details: 100 mg/kg i.p.
Description: The “rat blue light” model consists in subjecting the animals to a strong blue light for 6 hours in order to cause ocular damage that is assessed 7 days later by carrying out electroretinograms and then by histological analyses. An antioxidant compound, PBN (phenyl-N-tert-butylnitrone) is used as positive control (Ranchon et al., 2001; Tomita et al., 2005). The compounds of which it is sought to determine the photoprotective activity are injected (intraperitoneally) before and during the illumination phase. Said phase is carried out with Philips blue neon tubes (4.2 mW/cm^2) for 6 hours.
Three series of experiments were carried out with norbixin (100 mg/kg, four injections per rat of a solution at 50 mM in 9‰ NaCl, 4 rats/series) using PBN (phenyl-N-tert-butylnitrone, 50 mg/kg, solution at 20 mg/ml in 9‰ NaCl) as positive control.

[8] = tested on: double KO mice (ABCA4−/−, RDH8−/−); test: photoprotective activity by chronic oral administration (supplemented feed, 3 months); format: in vivo
Description: A feed containing 0.3 mg/g of pure norbixin was prepared and given to double KO mice (ABCA4^−/−, RDH8^−/−) for a period of 3 months.

[9] = cited from earlier work
[10] = tested on: rats; details: cited from earlier work
[11] = C57Bl/6, mouse, plasma, po, Bixin ingestion (50 mg/kg), analyte as labelled
[12] = C57Bl/6, mouse, po, Bixin ingestion (50 mg/kg), plasma, analyte as labelled

In the case of COC(=O)/C=C/C(C)=C\C=C\C(C)=C\C=C\C=C(C)\C=C\C=C(C)\C=C\C(=O)O [bixin, methylhydrogen 6,6′-diapocarotene-6,6′-dioate], the “protection of RPE cells against phototoxicity induced in the presence of A2E (cell survival)” value [1] is reported as “effectively protect”, the Cmax [2, 11] is reported as 833 ng/mL and the AUC(0-t) [2, 12] is reported as 1670 ng·h/mL. The Tmax ([2]; C57Bl/6, mouse, po, Bixin ingestion (50 mg/kg), plasma, analyte as labelled, read-out: Tmax) was 30 min, the “detection in plasma over time” value ([2]; oral 50 mg/kg) was “no longer detected after 8 hours” and the “conversion of ingested compound” value ([2]; oral 50 mg/kg) was “rapidly converted into norbixin”. The “photoprotective activity on RPE cells in earlier tests (FR 11 54172)” value [3] was “do not have any photoprotective activity; also recorded: ineffective”.

In the case of CC(/C=C/C=C(\C)C(=O)O)=C\C=C\C=C(C)\C=C\C=C(/C)C(=O)O [crocetin, 8,8′-diapocarotene-8,8′-dioate], the “protection against oxidative stress” value [4] is given as “protects”.

In the case of O=c1oc2c(O)c(O)cc3c(=O)oc4c(O)c(O)cc1c4c23 [ellagic acid], the “photoprotective effect on RPE cells in earlier tests (FR 11 54172)” value ([3]; 10 μM and 20 μM) is listed as “advantageous photoprotective effect”.

In the case of CC(=C/C=C/C(C)=C/C=C/C=C(C)/C=C/C=C(C)/C=C/C(=O)O)/C=C/C(=O)O [norbixin], the “protection of RPE cells against phototoxicity induced in the presence of A2E (cell survival)” value [1] is reported as “effectively protect”, the Tmax ([2]; Bixin ingestion (50 mg/kg), plasma, analyte as labelled) is reported as “Norbixin 0.5 h” and the Cmax [2, 11] is reported as 649 ng/mL. The Cmax ([2]; C57Bl/6, mouse, plasma, po, Norbixin ingestion (50 mg/kg)) was 12400 ng/mL, the bioavailability ([2]; C57Bl/6, mouse, plasma, intraperitoneal injection (5 mg/kg) versus oral administration (50 mg/kg), FIG. 3b) was 55% and the AUC(0-t) [2, 12] was 1340 ng·h/mL. For the same molecule, the AUC ([2]; C57Bl/6, mouse, po, Norbixin ingestion (50 mg/kg), plasma) was 41600 ng·h/mL, the Tmax ([2]; C57Bl/6, mouse, po, Norbixin ingestion (50 mg/kg), plasma, read-out: Tmax) was 30 min and the “detection in plasma over time” value ([2]; oral 50 mg/kg) was “no longer detected after 8 hours”. The “Norbixin (ng/organ), Crystalline” value ([5]; 3 hours after i.p. 10 mg/kg, Crystalline) was “<LOQ”, the “Norbixin (ng/organ), RPE” value ([5]; 3 hours after i.p. 10 mg/kg, RPE) was 5.15 ng/organ and the “Norbixin (ng/organ), Retina” value ([5]; 3 hours after i.p. 10 mg/kg, Retina) was 2.40 ng/organ. For the same molecule, the “Norbixin (ng/organ), Total” value ([5]; 3 hours after i.p. 10 mg/kg, Total) was 7.55 ng/organ, the “Norbixin (ng/organ), Vitreous humor” value ([5]; 3 hours after i.p. 10 mg/kg, Vitreous humor) was “<LOQ” and the “conjugated forms in plasma and eyes” value ([5]; HPLC-MS/MS, FIG. 4) was “gives two monoglucuronides”. The “elimination from the eye after intravitreal injection” value ([6]; 24 h after the intravitreal injection) was “virtually eliminated”, the “electroretinogram (A- and B-waves)” value ([6]; intravitreal, 130 μM in vitreous body, blue light 4000 lux 1 h, 7 days later, FIG. 6) was “protective effect” and the “thickness of the layer of external nuclei (photoreceptors), histology” value ([6]; intravitreal, 130 μM, FIG. 7) was “protective effect”. For the same molecule, the “electroretinograms (A-waves and B-waves)” value ([7]; four injections, blue light 6 hours, 7 days later, FIG. 8B) was “significant efficacity”, the “survival of the photoreceptors, histology” value ([7]; FIGS. 9A and 9B) was “confirm the photoprotective action” and the “accumulation of norbixin in the eyes” value ([8]; chronic treatment, feed, 3 months) was “no significant accumulation”. The “A2E accumulation in the eyes” value ([8]; feed 0.3 mg/g, 3 months, FIG. 10) was “reduction in A2E accumulation”, the “amplitude of the electroretinogram (ERG)” value ([8]; feed 0.3 mg/g, 3 months, FIG. 11) was “positive effect” and the “daily intake that significantly slows down the retinal degeneration” value ([8]; mice, oral administration) was 48 mg/kg of body weight. For the same molecule, the “photoprotective activity on RPE cells in earlier tests (FR 11 54172)” value [3] was “do not have any photoprotective activity”, the “acceptable daily intake (ADI)” value ([9]; JECFA/67/FC) was “at most 0.6 mg/kg/day of body weight” and the “daily intake with no observable adverse effect level in humans, equivalent” value ([9]; equivalent of rat NOAEL) was 11 mg/kg. The “intake up to which no toxicity was observed” value ([10]; rat, in vivo) was 20 mg/kg/day and the “no observable adverse effect level (NOAEL)” value ([10]; rats) was 69 mg/kg/day of body weight.
